Data taken from US6486149B2, “Composition comprising a crystallographically stable, amorphous cephalosporin and processes for the preparation thereof” (Meiji Seika Kaisha Ltd., priority 1998, dated 2002).
In brackets after ≈: the same amount, converted by molar mass.

Assay: Solubility in acidic water (pH 1.2) at 37° C. (Test Example 1)
Format: physicochemical
Settings: acidic water (pH 1.2) containing HCl, simulated gastric fluid, thermodynamic from solid, acidic water (pH 1.2) containing about 1N HCl, stirred 2 hours, filtered through 1 μm membrane, read-out: solubility of Cefditoren pivoxil in acidic water
Procedure: The solid particles present in the composition of this invention were tested for the measurement of their water-solubility as shown in Test Example given hereinafter.
There was taken as a sample one gram of the yellow-colored powder (the composition of this invention), which was obtained in Example 6 above, and which consisted essentially of the particles as formed substantially from a homogeneous mixture comprising the amorphous substance of Cefditoren pivoxil and hydroxypropylmethyl cellulose, and in which the surface layer of said particles contained additionally hydroxypropyl cellulose. The sample so taken was placed in 250 ml of an acidic water (pH 1.2) containing about […] at 37° C. and stirred at 37° C. for 2 hours. The resulting aqueous solution was passed through a millipore (1 μm) membrane filter to remove the insoluble solid therefrom. The transparent aqueous solution here obtained, which contained Cefditoren pivoxil and the water-soluble cellulose derivatives above-mentioned as dissolved therein, was then measured in respect of the concentration of the Cefditoren pivoxil. […]

## CO/N=C(\C(=O)NC1C(=O)N2C(C(=O)OCOC(=O)C(C)(C)C)=C(/C=C\c3scnc3C)CS[C@H]12)c1csc(N)n1 (stereo partly shown) [7-[(Z)-2-(2-aminothiazol-4-yl)-2-methoxyiminoacetamido]-3-[(Z)-2-(4-methylthiazol-5-yl)ethenyl]-3-cephem-4-carboxylic acid pivaloyloxymethyl ester]
  solubility at 2 h: ~400 µg/mL (≈ 644 µM)
